Consider 16 compounds from ChEMBL document CHEMBL4359825, “Synthesis of novel S-linked dihydroartemisinin derivatives and evaluation of their anticancer activity” (Eur J Med Chem, 2019).

Common to all, as to assay type: functional
Design in all cases: concentration or dose not given beside the values

For assay [1], the system named is MDA-MB-231. The assay can be described thus: Anticancer activity against human MDA-MB-231 cells assessed as cell viability measured after 72 hrs by MTT assay (reference value: 100 +/- 20.0 %). (In general: Formazan colour is commonly taken as a measure of viable cells.)
The test system of assay [2] is A-431. In words: Anticancer activity against human A431 cells assessed as cell viability measured after 72 hrs by MTT assay (reference value: 100 +/- 11.7 %).
Assay [3] deals with HeLa. In words: Anticancer activity against human HeLa cells assessed as cell viability measured after 72 hrs by MTT assay (reference value: 100 +/- 11.5 %).
In assay [4] the test system is HepG2. In words: Anticancer activity against human HepG2 cells assessed as cell viability measured after 72 hrs by MTT assay (reference value: 100 +/- 6.5 %).
In assay [5] the test system is LNCaP. The assay can be described thus: Anticancer activity against human LNCAP cells assessed as cell viability measured after 72 hrs by MTT assay (reference value: 100 +/- 5.0 %).
For assay [6], the system named is PC-3. The assay can be described thus: Anticancer activity against human PC3 cells assessed as cell viability measured after 72 hrs by MTT assay (reference value: 100 +/- 18.8 %).
For assay [7], the system named is A549. In words: Anticancer activity against human A549 cells assessed as cell viability measured after 72 hrs by MTT assay (reference value: 100 +/- 9.6 %).

For the compound `C[C@H]1[C@@H](Sc2nnnn2C)O[C@@H]2O[C@@]3(C)CC[C@H]4[C@H](C)CC[C@@H]1[C@@]24OO3`, the Activity in assay [1] came to 86%; in assay [2], 97%; in assay [3], 93%; in assay [4] it was 93%; in assay [5], 97%; in assay [6], 28%. Moreover, the Activity in assay [7] is 100%.
For `C[C@H]1[C@H](Sc2ccc3ccccc3n2)O[C@@H]2O[C@@]3(C)CC[C@H]4[C@H](C)CC[C@@H]1[C@@]24OO3`, the Activity in assay [1] is listed as 90%; in assay [2] it was 93%; in assay [3] it was 87%; in assay [4], 96%; in assay [5] it was 77%; in assay [6], 33%. In addition, in assay [7], the Activity is given as 100%.
`C[C@H]1[C@@H](Sc2cccc(C(=O)O)c2)O[C@@H]2O[C@@]3(C)CC[C@H]4[C@H](C)CC[C@@H]1[C@@]24OO3`: the Activity in assay [1] amounted to 97%; in assay [2], 90%; in assay [3] it was 58%; in assay [4], 60%; in assay [5] it was 43%; in assay [6] it was 41%. In assay [7], the Activity is listed as 89%.
As to `C[C@H]1[C@@H](Sc2ccc(Cl)cc2)O[C@@H]2O[C@@]3(C)CC[C@H]4[C@H](C)CC[C@@H]1[C@@]24OO3`, the Activity in assay [1] amounted to 70%; in assay [2], 36%; in assay [3], 41%; in assay [4], 36%; in assay [5] it was 37%; in assay [6], 99%. Besides, in assay [7], the Activity was 52%.
Consider `CCCCS[C@H]1O[C@@H]2O[C@@]3(C)CC[C@H]4[C@H](C)CC[C@@H]([C@H]1C)[C@@]24OO3`, for which the Activity in assay [1] was 71%; in assay [2], 47%; in assay [3], 49%; in assay [4] it was 52%; in assay [5] it was 47%; in assay [6], 33%. Also, in assay [7], the Activity was determined as 79%.
`C[C@H]1[C@H](Sc2ccc([N+](=O)[O-])cc2)O[C@@H]2O[C@@]3(C)CC[C@H]4[C@H](C)CC[C@@H]1[C@@]24OO3`: the Activity was 98% in assay [1]; 44% in assay [2]; 50% in assay [3]; 56% in assay [4]; 46% in assay [5]; 50% in assay [6]. In addition, the Activity in assay [7] is on record as 70%.
As to `C[C@H]1[C@H](Sc2nnnn2C)O[C@@H]2O[C@@]3(C)CC[C@H]4[C@H](C)CC[C@@H]1[C@@]24OO3`, the Activity was determined as 75% in assay [1]; 87% in assay [2]; 95% in assay [3]; 95% in assay [4]; 78% in assay [5]; 47% in assay [6]. In addition, the Activity in assay [7] worked out at 89%.
`C[C@H]1[C@H](Sc2ccc(Cl)cc2)O[C@@H]2O[C@@]3(C)CC[C@H]4[C@H](C)CC[C@@H]1[C@@]24OO3`: the Activity was 97% in assay [1]; 42% in assay [2]; 48% in assay [3]; 42% in assay [4]; 37% in assay [5]; 70% in assay [6]. The Activity in assay [7] amounted to 55%.
As for `CCCCS[C@@H]1O[C@@H]2O[C@@]3(C)CC[C@H]4[C@H](C)CC[C@@H]([C@H]1C)[C@@]24OO3`, the Activity in assay [1] is 90%; in assay [2] it was 86%; in assay [3], 82%; in assay [4] it was 92%; in assay [5], 90%; in assay [6] it was 92%. The Activity in assay [7] came to 96%.
Regarding `C[C@H]1[C@H](Sc2ccc(C(=O)O)cc2)O[C@@H]2O[C@@]3(C)CC[C@H]4[C@H](C)CC[C@@H]1[C@@]24OO3`, the Activity was 95% in assay [1]; 58% in assay [2]; 60% in assay [3]; 64% in assay [4]; 47% in assay [5]; 84% in assay [6]. Besides, the Activity in assay [7] worked out at 79%.
Turning to `COC(=O)CS[C@H]1O[C@@H]2O[C@@]3(C)CC[C@H]4[C@H](C)CC[C@@H]([C@H]1C)[C@@]24OO3`, the Activity in assay [1] is 99%; in assay [2], 77%; in assay [3] it was 80%; in assay [4] it was 94%; in assay [5] it was 71%; in assay [6], 44%. Besides, in assay [7], the Activity turned out to be 97%.
As to `COC(=O)CS[C@@H]1O[C@@H]2O[C@@]3(C)CC[C@H]4[C@H](C)CC[C@@H]([C@H]1C)[C@@]24OO3`, the Activity is on record as 98% in assay [1]; 75% in assay [2]; 79% in assay [3]; 80% in assay [4]; 60% in assay [5]; 32% in assay [6]. Besides, in assay [7], the Activity is 91%.
In the case of `C[C@H]1[C@@H](Sc2ccc3ccccc3n2)O[C@@H]2O[C@@]3(C)CC[C@H]4[C@H](C)CC[C@@H]1[C@@]24OO3`, the Activity in assay [1] came to 78%; in assay [2], 44%; in assay [3] it was 63%; in assay [4], 72%; in assay [5], 41%; in assay [6] it was 39%. Moreover, the Activity in assay [7] was 87%.
For the compound `COC(=O)Cc1ccc(SC2O[C@@H]3O[C@@]4(C)CC[C@H]5[C@H](C)CC[C@@H]([C@H]2C)[C@@]35OO4)cc1` (some centres not stated), the Activity in assay [1] is given as 96%; in assay [2], 52%; in assay [3] it was 43%; in assay [4], 67%; in assay [5], 31%; in assay [6] it was 31%. The Activity in assay [7] is 74%.
As for `C[C@H]1[C@@H](Sc2ccc(C(=O)O)cc2)O[C@@H]2O[C@@]3(C)CC[C@H]4[C@H](C)CC[C@@H]1[C@@]24OO3`, the Activity was determined as 64% in assay [1]; 31% in assay [2]; 55% in assay [3]; 45% in assay [4]; 41% in assay [5]; 32% in assay [6]. In addition, the Activity in assay [7] stood at 76%.
Consider `CCCCCCS[C@@H]1O[C@@H]2O[C@@]3(C)CC[C@H]4[C@H](C)CC[C@@H]([C@H]1C)[C@@]24OO3`, for which the Activity is given as 72% in assay [1]; 35% in assay [2]; 44% in assay [3]; 35% in assay [4]; 36% in assay [5]; 90% in assay [6]. In assay [7], the Activity worked out at 70%.
